Measurements from patent US7820759B2, “Micellar preparation containing sparingly water-soluble anticancer agent and novel block copolymer” (Nippon Kayaku Kabushiki Kaisha, priority 2003, dated 2010).
“And” between values parts separate entries of the source, which are not always exact repeats. Equal entries are not always repeated.

How the values were obtained:
[1] = Transition of paclitaxel concentrations in the rat plasma; format: in vivo; conditions: intravenous, 5 mg/kg paclitaxel equivalent, tail vein, male SD rats
Experimental: Micellar preparation 10 from Example 9 was diluted with normal saline solution to make an aqueous solution having a concentration of 2.5 mg/mL in terms of paclitaxel. Paclitaxel alone was dissolved in ethanol, to which Cremophor (Sigma) was then added in the same amount as ethanol to prepare in such a way that the concentration of paclitaxel was adjusted to 25 mg/mL, followed by dilution to 2.5 mg/mL with normal saline solution immediately before administration. Micellar preparation 10 or paclitaxel alone was administered in an amount equivalent to paclitaxel 5 mg/kg to male SD rats through their tail veins, followed by taking blood samples from their cervical veins with time. The plasma obtained by centrifugation was diluted with an appropriate amount of water and subjected to three rounds of extraction with t-butyl methyl ether. The ether layer was recovered, dried up, and then dissolved in 50 μL of actonitrile, followed by quantitating paclitaxel using HPLC.

[2] = system: mouse colon cancer Colon 26 cells; assay: In vivo antitumor effect against Colon 26; conditions: average tumor volume treated/untreated, 11 days after treatment, 30 mg/kg in terms of paclitaxel, tail vein, 5 consecutive days, female CDF1 mice
Experimental: Female CDF1 mice were inoculated subcutaneously at the back thereof with the mouse colon cancer Colon 26 cells, and, from the point of time when the volume of tumor has reached around 100 mm^3, micellar preparation 10 according to the invention, the micellar composition from Comparative Example, or paclitaxel was administered through the tail veins of the mice for consecutive 5 days to examine effects against advanced cancer. Each agent was used directly, or after dilution with saline before use. The concentration of each agent was expressed in terms of paclitaxel. The antitumor effect of agent was judged on the basis of a percentage of the average tumor volume in treated group to the average tumor volume in untreated group (T/C %) 11 days after agent treatment.

[3] = system: female CDF1 mice; assay: Toxicity test against mouse extension reflex (peripheral nerve impairment); format: in vivo; conditions: 30 mg/kg in terms of paclitaxel, tail vein, 5 consecutive days, hind limbs
Experimental: Micellar preparation 10 or paclitaxel alone was administered to female CDF1 mice through their tail veins for consecutive 5 days to observe the extension reflex of their hind limbs providing an indication of peripheral nerve impairment due to paclitaxel. Each agent was prepared as described in Test Example 1, and used directly, or after dilution with saline before use. The dosages used were expressed in terms of paclitaxel.

- AUC(0-t) ([1]; read-out: AUC (0-360) (converted)): 1170 ng·h/mL
- concentration at 10 min ([1]; blood drawing time 10 min): 1050 ng/mL
- concentration at 30 min ([1]; blood drawing time 30 min): 510 ng/mL
- concentration at 60 min ([1]; blood drawing time 60 min): 260 ng/mL
- concentration at 120 min ([1]; blood drawing time 120 min): 100 ng/mL
- concentration at 360 min ([1]; blood drawing time 360 min): 35 ng/mL
SMILES: CC(=O)O[C@H]1C(=O)[C@@]2(C)[C@H]([C@H](OC(=O)c3ccccc3)[C@]3(O)C[C@H](OC(=O)[C@H](O)[C@@H](NC(=O)c4ccccc4)c4ccccc4)C(C)=C1C3(C)C)[C@]1(OC(C)=O)CO[C@@H]1C[C@@H]2O [Paclitaxel, paclitaxel]
- T/C (%) [2]: 40.0% and 37.5%
- T/C (%) ([2]; listed as paclitaxel alone): 37.5% and 40.0%
- Mice showing extension reflex disappearance [3]: 3/3
- Mice showing extension reflex disappearance ([3]; listed as paclitaxel alone): induced the disappearance of extension reflex in all mice
